Series [1] addresses EGFR (Homo sapiens, UniProt P00533). Briefly: Phosphotyrosine ELISA cytoblot, EGFR inhibition in A431 cells. The conditions noted are these: for EGFR inhibition improved, fold compared to the corresponding 2-amino analog: 14 vs 8, 15 vs 9, 17 vs 11.
The test system of series [2] is B16-F10 mouse melanoma tumors. Briefly: B16-F10 syngeneic tumor model. Type of series: in vivo, athymic NCr nu/nu male mice. Conditions: 10 mg/kg IP twice weekly.
Series [3] has as its target VEGFR-2 (Homo sapiens, UniProt P35968). Briefly: Phosphotyrosine ELISA cytoblot, VEGFR-2. In general terms: ELISA stands for enzyme-linked immunosorbent assay.
Series [4] relates to chicken embryo chorioallantoic membrane (CAM). As to the kind of experiment: CAM assay of angiogenesis. Conditions: in vivo.
A short description of series [5]: Whole animal toxicity assay. Type of series: in vivo.

Chain of EGFR (P00533 25-1210): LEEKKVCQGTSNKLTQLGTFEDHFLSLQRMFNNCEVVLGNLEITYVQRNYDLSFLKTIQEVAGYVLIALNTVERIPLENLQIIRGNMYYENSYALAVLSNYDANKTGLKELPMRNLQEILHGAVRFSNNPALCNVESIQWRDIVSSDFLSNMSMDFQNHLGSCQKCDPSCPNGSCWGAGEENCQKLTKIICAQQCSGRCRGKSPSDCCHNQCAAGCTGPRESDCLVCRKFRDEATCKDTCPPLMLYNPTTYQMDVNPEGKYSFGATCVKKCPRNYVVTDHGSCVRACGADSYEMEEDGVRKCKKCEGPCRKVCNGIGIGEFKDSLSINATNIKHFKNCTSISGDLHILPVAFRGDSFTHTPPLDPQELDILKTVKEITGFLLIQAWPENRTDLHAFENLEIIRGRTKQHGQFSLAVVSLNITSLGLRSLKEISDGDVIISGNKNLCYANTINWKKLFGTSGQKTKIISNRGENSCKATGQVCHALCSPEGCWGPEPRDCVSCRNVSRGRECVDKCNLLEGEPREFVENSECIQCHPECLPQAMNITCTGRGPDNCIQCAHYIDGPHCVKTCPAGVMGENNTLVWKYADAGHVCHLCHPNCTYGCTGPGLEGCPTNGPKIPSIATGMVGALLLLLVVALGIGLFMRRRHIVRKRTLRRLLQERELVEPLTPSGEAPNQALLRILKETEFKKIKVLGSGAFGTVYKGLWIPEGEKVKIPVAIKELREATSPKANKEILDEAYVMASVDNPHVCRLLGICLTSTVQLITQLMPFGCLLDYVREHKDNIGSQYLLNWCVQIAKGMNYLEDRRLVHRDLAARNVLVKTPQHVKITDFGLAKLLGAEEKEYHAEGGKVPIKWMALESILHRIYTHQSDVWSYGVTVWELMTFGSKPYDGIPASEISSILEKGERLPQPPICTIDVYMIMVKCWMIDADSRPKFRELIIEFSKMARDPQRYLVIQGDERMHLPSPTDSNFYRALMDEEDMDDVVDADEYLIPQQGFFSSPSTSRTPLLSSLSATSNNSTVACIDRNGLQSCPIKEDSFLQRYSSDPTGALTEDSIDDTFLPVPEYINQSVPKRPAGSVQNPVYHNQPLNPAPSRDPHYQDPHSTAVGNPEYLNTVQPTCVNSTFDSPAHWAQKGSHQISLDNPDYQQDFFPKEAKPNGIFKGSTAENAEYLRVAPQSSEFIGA
Chain of VEGFR-2 (P35968 20-1356): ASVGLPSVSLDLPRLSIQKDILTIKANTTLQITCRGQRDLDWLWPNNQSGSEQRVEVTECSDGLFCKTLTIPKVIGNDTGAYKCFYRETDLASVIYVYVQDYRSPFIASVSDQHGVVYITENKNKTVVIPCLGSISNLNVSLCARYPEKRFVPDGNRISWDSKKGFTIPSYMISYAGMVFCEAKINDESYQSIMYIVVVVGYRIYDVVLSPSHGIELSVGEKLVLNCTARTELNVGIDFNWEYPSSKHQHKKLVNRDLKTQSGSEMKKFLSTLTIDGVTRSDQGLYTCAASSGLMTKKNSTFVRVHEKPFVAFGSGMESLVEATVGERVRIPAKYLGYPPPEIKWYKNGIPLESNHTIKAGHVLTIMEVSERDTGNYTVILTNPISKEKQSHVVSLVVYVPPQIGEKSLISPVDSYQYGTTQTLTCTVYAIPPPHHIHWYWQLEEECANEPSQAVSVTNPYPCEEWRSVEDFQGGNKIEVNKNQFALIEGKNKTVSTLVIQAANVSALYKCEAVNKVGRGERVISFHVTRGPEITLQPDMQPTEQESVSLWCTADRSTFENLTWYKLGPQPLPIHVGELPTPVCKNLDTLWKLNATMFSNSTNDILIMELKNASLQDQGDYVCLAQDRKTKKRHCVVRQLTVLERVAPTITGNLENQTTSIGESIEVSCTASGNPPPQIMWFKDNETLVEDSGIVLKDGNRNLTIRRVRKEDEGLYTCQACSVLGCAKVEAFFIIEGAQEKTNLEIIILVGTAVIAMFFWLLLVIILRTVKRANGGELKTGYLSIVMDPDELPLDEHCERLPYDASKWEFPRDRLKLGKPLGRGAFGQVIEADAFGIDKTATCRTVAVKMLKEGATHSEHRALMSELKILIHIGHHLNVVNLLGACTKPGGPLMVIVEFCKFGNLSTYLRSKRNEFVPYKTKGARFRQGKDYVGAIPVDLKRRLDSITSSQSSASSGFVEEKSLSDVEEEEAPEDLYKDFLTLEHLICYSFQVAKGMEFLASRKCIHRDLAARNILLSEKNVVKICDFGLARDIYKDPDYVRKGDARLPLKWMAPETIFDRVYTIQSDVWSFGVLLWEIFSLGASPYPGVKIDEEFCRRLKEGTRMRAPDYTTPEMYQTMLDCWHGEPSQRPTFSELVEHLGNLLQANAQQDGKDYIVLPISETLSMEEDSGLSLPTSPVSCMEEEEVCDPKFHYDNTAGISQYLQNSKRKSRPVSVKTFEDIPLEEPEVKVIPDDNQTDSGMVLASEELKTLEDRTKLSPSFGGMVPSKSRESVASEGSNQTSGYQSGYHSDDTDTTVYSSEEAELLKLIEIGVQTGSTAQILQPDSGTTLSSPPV

On to `CC(C)(C)C(=O)Nc1nc(Nc2ccc(F)c(Cl)c2)c2cc(CCc3ccccn3)[nH]c2n1` [Compound 15, N-{4-[(3-chloro,4-fluorophenyl)amino]-6-(2-pyridin-2-yl-ethyl)-7H-pyrrolo[2,3-d]pyrimidin-2-yl}-2,2-dimethylpropanamide], for which, in series [1], the “EGFR inhibition improved, fold compared to the corresponding 2-amino analog” value came to 6.5 fold. With `CN(Cc1cnc2nc(N)nc(N)c2n1)c1ccc(C(=O)N[C@@H](CCC(=O)O)C(=O)O)cc1` [MTX, methotrexate], the “B16-F10 primary tumor growth” value in series [2] is “slightly better at inhibiting primary tumor growth as compared to 8”. Besides, the “decrease in vascular density of B16-F10 tumors” value in series [2] (compared to solvent treated animals) was “statistically significant”. In series [2] (compared to untreated animals), the tumor volume result is listed as “significantly less increase in tumor volume”. For the molecule `CC(C)(C)C(=O)Nc1nc(Nc2cccc(C(F)(F)F)c2)c2cc(CCc3ccccn3)[nH]c2n1` [Compound 17, N-{4-[(3-trifluoromethylphenyl)amino]-6-(2-pyridin-2-yl-ethyl)-7H-pyrrolo[2,3-d]pyrimidin-2-yl}-2,2-dimethylpropanamide], the “EGFR inhibition improved, fold compared to the corresponding 2-amino analog” value in series [1] came to 1.4 fold. With `Nc1nc(Nc2ccc(F)c(Br)c2)c2cc(CCc3ccccn3)[nH]c2n1` [Compound 8, N^4-(3-bromo,4-fluorophenyl)-6-(2-pyridin-2-yl-ethyl)-7H-pyrrolo[2,3-d]pyrimidine-2,4-diamine], the “VEGFR-2 inhibition, fold improvement in activity compared to 7” value in series [3] is 2 fold. Also, in series [4], the “CAM angiogenesis assay, fold better than semaxanib (27)” value was determined as 1.2 fold. In addition, the weight loss result in series [5] (7.5 or 10 mg/kg twice weekly, compared to untreated) was “no weight loss”; in series [5] (20, 17, and 15 mg/kg twice weekly, 6 week time point), “significant”. For `CC(C)(C)C(=O)Nc1nc(Nc2ccc(F)c(C(F)(F)F)c2)c2cc(CCc3ccccn3)[nH]c2n1` [Compound 18, N-{4-[(3-trifluoromethyl,4-fluorophenyl)amino]-6-(2-pyridin-2-yl-ethyl)-7H-pyrrolo[2,3-d]pyrimidin-2-yl}-2,2-dimethylpropanamide], the “EGFR inhibition, fold less active than 12” value in series [1] came out at 1.7 fold. `C#Cc1cccc(Nc2nc(NC(=O)C(C)(C)C)nc3[nH]c(CCc4ccccn4)cc23)c1` [Compound 16, N-{4-[(3-ethynylphenyl)amino]-6-(2-pyridin-2-yl-ethyl)-7H-pyrrolo[2,3-d]pyrimidin-2-yl}-2,2-dimethylpropanamide]: the “EGFR inhibitory assay, result in words” value in series [1] was “inactive”. With `CC(C)(C)C(=O)Nc1nc(Nc2ccc(F)c(Br)c2)c2cc(CCc3ccccn3)[nH]c2n1` [Compound 14, N-{4-[(3-bromo,4-fluorophenyl)amino]-6-(2-pyridin-2-yl-ethyl)-7H-pyrrolo[2,3-d]pyrimidin-2-yl}the-2,2-dimethylpropanamide], in series [1], the “EGFR inhibition improved, fold compared to the corresponding 2-amino analog” value is listed as 16 fold.

The values are drawn from article PMC3574204 (Bioorganic & medicinal chemistry, 2013).
